Results on three compounds are retold here after patent US20120251495A1, “PTERIN BASED THERAPIES FOR INFLAMMATORY CONDITIONS” (priority 2008, published 2012).

The test system of test [1] is plasma cytokines. As to the kind of experiment: Plasma cytokine levels (multiplex and single ELISA kits), 2nd experiment. Type of test: in vivo, athymic nude mice. Conditions: for IL-5: limit of detection 3.0; for IL-6: limit of detection 3.9; for IL-1β: limit of detection 4.1; for IL-10: limit of detection 24.6. On the procedure:
Cytokine levels in EDTA plasma from the mice in the 2nd experiment were measured at the UCSD Core Laboratory (San Diego, Calif.) using a multiplex assay kit for IL-1β, IL-2, IL-4, IL-5, IL-10, IL-12, IFN-γ, TNF-α and single ELISA kits for IL-6 and TGF-β1 by R&D Systems. […] For both the 1st and 2nd experiments, those measured cytokine values falling below the limits of detection were set to the higher assay limit for the purposes of the subsequent statistical analyses, and recorded as n.d. (not detectable) in Tables 1 through 3.
(In general: In an ELISA, binding on a coated surface is turned into a signal by an enzyme label.)

Test [2] deals with MDA-MB-231 human breast tumor xenographs. As to the kind of experiment: Antitumor efficacy in nude mice with MDA-MB-231 xenographs, 2nd experiment. Type of test: in vivo, athymic nude mice. Conditions: (1:2) 25, DCP 23 and 69, calcium chloride dihydrate 4.2 mg/kg/day.
Protocol: In the 2nd experiment, twenty-nine athymic nude, also purchased from Harlan Sprague Dawley, Inc. (Indianapolis, Ind.), were each injected subcutaneously with 10×10^6 MDA-MB-231 cancer cells into the right flank. When tumors reached 3-5 mm in size, the mice were divided into five treatment groups of five each and a control group of four mice. […] All the other mice in the 2nd experiment persisted ≧43 days without complications. Experimental groups were treated by oral gavage once daily with the indicated test suspensions or solutions.
For test [3], the system named is MDA-MB-231 xenograph tumors. Briefly: Combined analysis of DCP + control mice: Day 42,43 relative tumor volume and DCP/APCP. Format: in vivo, nude mice. Conditions: 25 mg/(kg day); Day 42,43 relative tumor volume; combined data. On the procedure: Standard ANOVA models for group effects, curve fitting, and stepwise regression analyses were carried out using SPSS Graduate Pack 15.0 for Windows (2006), with p<0.05 used to determine significance.
Table 7 gives the plasma cytokine and relative tumor volume Spearman rank order correlations for the 12 DCP+ control mice (Control [n=3; from 1st experiment]; 23 mg/(kg d) DCP [n=5; from 2nd experiment]; and 69 mg/(kg d) DCP [n=4; from 2nd experiment]).
To further determine significant causal and correlational linkages among DCP dosage, plasma cytokine changes, and relative tumor volume, the following curve fitting analyses were carried out with the 12 DCP+ control mice. First, plotting DCP versus Day 42,43 Relative Tumor Volume yielded a significant quadratic relationship (FIG. 11). Second, curve fitting each cytokine versus Day 42,43 Relative Tumor Volume found no significant linear relationship and only one significant quadratic relationship, i.e., with IL-12 (p=0.004; FIG. 12). Third, plotting DCP versus IL-12 yielded a weakly significant quadratic relationship (p=0.048; FIG. 13).
Substantially more significant analogous plots were generated by first carrying out the Table 8 stepwise regression analysis which derived the DCP antitumor plasma cytokine pattern (DCP/APCP), shown to be a more significant cytokine composite measure than IL-12 taken alone. The Table 8 stepwise regression analysis of the cytokine data from the 12 DCP+ control mice allowed for the calculation of DCP/APCP scores for each mouse. These DCP/APCP scores are plotted versus DCP dosage in […], which illustrates the significant quadratic dose-response relationships of DCP versus the derived plasma DCP/APCP composite measure. From this figure the estimated optimum dosage of DCP for maximum tumor growth inhibition is 42 mg/(kg day), while the estimated optimum dosage for maximum DCP/APCP induction is 44 mg/(kg day).

In test [4] the test system is MDA-MB-231 human breast tumor xenographs. Briefly: Antitumor efficacy in nude mice with MDA-MB-231 xenographs, 1st experiment. The following applies: 21 mg/kg/day. Format: in vivo, athymic nude (nu/nu) mice. On the procedure:
The aims of the 1st experiment were to determine a dose-response curve for the (1:4 mol:mol) calcium pterin suspension, to compare the antitumor activity of this suspension to pterin alone (pterin control), and to test the effect of CaPterin mega-dosing at 100 mg/kg/day. Antitumor efficacy was evaluated in nude mice with MDA-MB-231 human tumor xenographs by Perry Scientific (San Diego, Calif.). In the 1st experiment, twenty-three athymic nude (nu/nu) female mice, ages 3-4 weeks, were purchased from Harlan Sprague Dawley, Inc. (Indianapolis, Ind.). 5×10^6 MDA-MB-231 cancer cells were injected subcutaneously into the right flank of each mouse. When tumors reached 3-5 mm in size, twenty mice were divided into four treatment/control groups of five mice each. The four treatment groups were: (1:4 mol:mol) calcium pterin (7 mg/kg/day); pterin (21 mg/kg/day); (1:4 mol:mol) calcium pterin (21 mg/kg/day); and sterile water control. Two mice with outlying tumor sizes or non-tumor takes were excluded shortly after treatment began: one from the pterin group and one from the control group. […] Only one outlier persisted >4 days, for 14 days. Also excluded from the metabolic analysis in the 1st experiment was one mouse from each of the four experimental groups mega-dosed by oral gavage with 100 mg/kg/day CaPterin for tip to 31 days to test for toxicity. All the other mice in the 1st experiment persisted ≧60 days without complications.
The control mice in the 1st experiment were treated with sterile water while the control mice in the 2nd experiment were untreated to evaluate the effect of mouse handling and gavaging upon tumor growth. Daily dosing was for 7 days per week. Animals were restrained but not anesthetized for oral dosing. Tumors were measured twice weekly with calipers and body weights taken twice weekly on the day of tumor measurements. Blood was collected from all animals via cardiac puncture at termination (after 70 to 98 days of treatment) and processed to EDTA plasma for analysis. Tumor size measurements for the control group in the 2nd experiment on days 4 and 7 were missed due to a technical oversight.
The MDA-MB-231 human breast tumor cell lines were supplied by SRI International (Menlo Park, Calif.) and propagated using standard in vitro cell expansion methods. Briefly, cells were grown in L-15 media from Gibco (Cat. No. 11415-064) supplemented with 2 mM L-Glutamine and 10% Fetal Bovine Serum (FBS). The cells were cultured in an incubator with 5% CO2, 37.5° C., and 80% humidity. Cells were harvested with 0.25% (w/v) Trypsin-0.03% (w/v) EDTA solution. Cells were prepared for injection by standard methods to appropriate concentrations. Animals were temporarily restrained but not anesthetized for the inoculation of the tumor cells. Animals were subcutaneously injected with the tumor cells in a 100-200 μl volume.
Each animal was individually tracked for tumor growth by external caliper measurements of protruding tumor. Primary tumor sizes were measured using calipers and an approximate tumor volume calculated using the formula 1/2 (a×b^2), where b was the smaller of two perpendicular diameters.
For each group, the mean and standard error of the mean (SEM) of the ratio V/Vo, Relative Tumor Volume (RTV), were plotted as a function of treatment time after inoculation. V0 was the tumor volume at Day 0, when treatment began.

For test [5], the system named is plasma cytokines. Briefly: Plasma cytokine levels by ELISA (LINCOplex), 1st experiment. Type of test: in vivo, athymic nude (nu/nu) mice. The following applies: Table 4, 21 mg/kg/d. On the procedure: Cytokine levels in EDTA plasma from the mice in the 1st experiment were determined by ELISA assay at Alta Analytical Laboratories (San Diego, Calif.) using a LINCOplex Kit (Linco Research). Tryptophan (Trp) and kynurenine (Kyn) concentrations were measured from EDTA plasma samples by high pressure liquid chromatography (HPLC) using 3-nitro-L-tyrosine as the internal standard (Widner et al., 1997). To estimate IDO activity, the kynurenine to tryptophan ratio (Kyn/Trp) was calculated and expressed as μmol kynurenine/mmol tryptophan (Wirleitner, 2003). The values from five mice in the 1st experiment are not included in the summary statistics given in Table 1 for the following reasons. One mouse from each of the four treatment groups was used to test the effects of mega dosing, i.e., with (1:4 mol:mol) calcium pterin at 100 mg/kg/day after Day 60 of treatment, and are excluded. Also excluded was one mouse from the (1:4 mol:mol) calcium pterin (7 mg/kg/day) group which expired suddenly a few days before blood was collected. Cytokine measurements <3.2 pg/ml are reported as n.d. (not detectable) because the standard curves used in the ELISA assays were not calibrated below that level.
Cytokine levels in EDTA plasma from the mice in the 1st experiment were determined by ELISA assay at Alta Analytical Laboratories (San Diego, Calif.) using a LINCOplex Kit (Linco Research).
Cytokine levels in EDTA plasma from the mice in the 2nd experiment were measured at the UCSD Core Laboratory (San Diego, Calif.) using a multiplex assay kit for IL-1β, IL-2, IL-4, IL-5, IL-10, IL-12, IFN-γ, TNF-α and single ELISA kits for IL-6 and TGF-β1 by R&D Systems. EDTA plasma samples from two of the three ungavaged controls were lost due to handling error. For both the 1st and 2nd experiments, those measured cytokine values falling below the limits of detection were set to the higher assay limit for the purposes of the subsequent statistical analyses, and recorded as n.d. (not detectable) in Tables 1 through 3.

Where [6] appears, read: 2nd experiment, CaCl2 group, 4.2 mg/kg/day.
The mark [7] stands for this setting: 2nd experiment, CaCl2 group, 4.2 mg/kg/day, limit of detection 3.2.
The mark [8] stands for this setting: 2nd experiment, 25 mg/kg/d, limit of detection 3.2.

In the case of `O.O.[Ca+2].[Cl-].[Cl-]` [CaCl2•2H2O, calcium chloride dihydrate, reference compound], the “plasma IL-12 versus control (FIG. 10)” value in test [1] (4.2 mg/(kg day)) is recorded as “significantly elevated”. For the same compound, in test [1] (setting [6]), the IL-5 came to 10.3 ± 2.4 pg/mL, the IL-6 was 44.4 ± 15.4 pg/mL, the IL-1β is 6.4 ± .9 pg/mL and the IL-10 stood at 26.5 ± 1.9 pg/mL. In addition, in test [1] (setting [7]), the IFN-γ was determined as 9.7 ± 3.3 pg/mL, the IL-4 is 3.6 ± .3 pg/mL and the IL-12 worked out at 904.9 ± 156.9 pg/mL. For the same compound, the IL-2 in test [1] (2nd experiment, CaCl2 group, 4.2 mg/kg/day, limit of detection 12.6) was 12.7 ± .13 pg/mL. Moreover, the TGF-β1 in test [1] (2nd experiment, CaCl2 group, 4.2 mg/kg/day, limit of detection 31.2) was determined as 74.3 ± 35.0 pg/mL. For the same compound, the “MDA-MB-231 xenograph growth inhibition” value in test [2] is “significantly inhibit”.

On to (1:2 mol:mol) calcium pterin, for which, in test [1] (2nd experiment, 25 mg/kg/d), the IL-5 is 4.4 ± .9 pg/mL, the IL-6 amounted to 31.6 ± 9.2 pg/mL, the IL-1β was 4.9 ± .5 pg/mL and the IL-10 came out at 30.2 ± 5.6 pg/mL. For the same compound, in test [1] (setting [8]), the IFN-γ was 16.1 ± 12.9 pg/mL and the IL-12 was 315.2 ± 71.0 pg/mL. The “increases in plasma IL-12 (FIG. 10)” value in test [1] (at the dosages tested) is given as “lower, non-significant increases”. Also, the “MDA-MB-231 xenograph growth inhibition” value in test [2] is “significantly inhibit”. The “tumor growth inhibition relative to controls (FIG. 9)” value in test [3] was “significant tumor growth inhibition”.

`Nc1nc2nccnc2c(=O)[nH]1` [Pterin, 2-amino-4(3H)-pteridinone]: the “antitumor activity (tumor growth vs control)” value in test [4] is recorded as “no antitumor activity”. In test [5] (limit of detection 3.2), this compound gave an IL-12 of 48.5 ± 45.3 pg/mL and a TNF-α of 9.0 ± 3.7 pg/mL. For the same compound, in test [5] (limit of detection 4.1), the IL-1β turned out to be 64.6 ± 60.4 pg/mL. This compound yielded an IL-6 in test [5] (plasma at sacrifice, limit of detection 3.9) of 87.4 ± 11.0 pg/mL.
